Paper PMC7128553 (Chemistry & Biology, 2004)
Entries after “also recorded” stand apart in the source; their conditions may differ. Read-outs that look alike come from different tables or passages of the source.

Tests used:
SARS-CoV = test: microbe, parasite or virus in culture; assay type: cell-based; conditions: read-out: EC50, SARS-CoV plaque formation
Vero cells = conditions: African green monkey
[1] = target: T1, human neutrophil elastase (HNE) (Homo sapiens, UniProt P08246); assay type: biochemical
T1 sequence (P08246 30-267): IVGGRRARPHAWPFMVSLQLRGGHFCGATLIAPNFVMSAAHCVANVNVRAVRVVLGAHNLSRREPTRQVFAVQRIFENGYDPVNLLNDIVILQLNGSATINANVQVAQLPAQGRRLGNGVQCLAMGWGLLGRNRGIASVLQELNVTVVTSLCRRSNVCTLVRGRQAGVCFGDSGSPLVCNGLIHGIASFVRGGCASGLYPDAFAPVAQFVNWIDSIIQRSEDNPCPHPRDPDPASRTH

poliovirus (type 1) = assay type: cell-based
[2] = Severe acute respiratory syndrome coronavirus, Vero

Structure (SMILES) | EC50 (SARS-CoV; [2]) | EC50 (SARS-CoV) | Cytotoxicity on Vero Cells (TC50) (Vero cells) | Inhibition of proteolytic activity of HNE [1] | Inhibition of poliovirus plaque formation (poliovirus (type 1))
O=C(Nc1ccc(Cl)c(-c2nc3ncccc3o2)c1)c1cccc(OCc2ccccc2)c1 [HE602, 3-Benzyloxy-N-(4-chloro-3-oxazolo[4,5-b]pyridine-2-yl-phenyl)benzamide] | 6 µM | < 10 µM | >50 µM | – | –
CC1=C(C(=O)OCCc2ccccc2)C(c2ccccc2[N+](=O)[O-])C2=C(CCCC2=O)N1 (stereo not drawn) [MP576, 3-quinolinecarboxylic acid, 1,4,5,6,7,8-hexahydro-2-methyl-4-(2-nitrophenyl)-5-oxo-, 2-phenylethyl ester] | 7 µM | < 10 µM | >50 µM | failed to inhibit; also recorded: did not inhibit | –
OC(COc1cccc(OCC(O)CN2CCCCC2)c1)CN1CCCCC1 (stereo not drawn) [VE607, 1-[3-(2-Hydroxyl-3-piperidin-1-yl-propoxy)-phenoxy]-3-piperidin-1-ylpropan-2-ol] | – | – | >50 µM | – | did not protect; also recorded: did not inhibit
